Data: US20260217699A1, “BERBERINE TAUROURSODEOXYCHOLATE COMPOSITIONS AND METHODS THEREOF” (SHENZHEN HIGHTIDE BIOPHARMACEUTICAL LTD., priority 2023, published 2026)

Key:
Format in all cases: in vivo, Sprague-Dawley rats
[1] = system: 6-OHDA Stereotactic Injection Induced PD Rats; test: Grip strength test; details: for Peak Grip Strength: Mean ± SEM, N=10, Model 558.334 ± 10.175, p<0.001 vs Model
From the text: The rats were respiratory anesthetized with isoflurane; the head was fixed to ensure that there was no movement and the brain surface was adjusted to be flat; the head was shaved, and a skin incision was made along the sagittal suture to expose the fontanel point; the glass electrode was positioned to the fontanel, and the axes of the coordinate monitor were zeroed to locate the brain areas of the SN and the Str based on the coordinates, in which the SN: AP=−5.0 mm; ML=−1.9 mm; DV=−8.5 mm, and Str: AP=+0.5 mm; ML=−3.0 mm; DV=−6.0 mm. […]; slowly inserted the needle into the localized area of SN and Str, waited for 10 min, and then administered the drug of 6-OHDA at a rate of […] for 10 min, and each animal was given […] of each of SN and Str area, and then the needle was slowly withdrawn after the drug was administered for 10 min, and the PD rat model was established.
The animal was placed on the platform with both forelimbs on the gripping pole, followed by grabbing the animal's tail, and pulling it straight back until the pulling force exceeded their gripping force. After the animals lose their grip, the preamplifier automatically recorded the maximum value of the pulling force. After the measurement was completed, the average of the maximum pulling force of each group of animals was calculated to evaluate the rat's locomotor muscle ability. Information on the grip strength test can also be found in the literature (Jeyasingham, et al. 2001 Brain Res Bull. 55(4):541-8).
In this study, 16 Sprague Dawley (SD) male rats 180g-220g were used to establish a PD model by stereotactic unilateral injection of 6-OHDA in the substantia nigra (SN) and striatum (Str) brain areas after one week of acclimatization feeding and were randomly divided into 2 groups of 8 rats each. […]
Experimental Methods: Seventy 180-220g SD male rats were selected and fed for one week for accumulation, and the PD model was established by stereotactic unilateral injection of 6-OHDA in the Substantia Nigra (SN) and Striatum (Str) regions and were randomly divided into five groups according to their body weights including Madopar group (Madopar, 50 mg/kg), BTUDC-L group (BTUDC, 100 mg/kg), BTUDC-M group (BTUDC, 500 mg/kg), and BTUDC-H group (BTUDC, 1000 mg/kg), with 10 animals in each group. […] At the end of the administration, the test articles were evaluated for tolerance in this model and in behavioral apomorphine—asymmetric rotation test, beam test, rotarod test and grip strength test, immunofluorescence staining (TH, Ibal), and cerebrospinal fluid inflammatory factor assays to evaluate the pharmacodynamic effects of the test articles. […]

IL-1β = test: Elisa test of cerebrospinal fluid, IL-1β; details: rat cerebrospinal fluid; BTUDC-H 1000 mg/kg p.o. Qd 21 days; Mean ± SEM, n=10; Model 41.509 ± 1.298; p<0.05 vs Model
From the text: (§1) The cerebrospinal fluid was directly extracted by inserting a needle through the foramen magnum, and the supernatant was collected after centrifugation for ELISA testing. The kit brand was Shanghai Enzyme Link. The product codes of IL-6, IL-1β, and TNF-α were m1064292, m1037361, and m1002859, respectively. Processed the sample according to the instructions of the ELISA detection kit, adjusted the blank well to zero, measured the absorbance (OD value) of each well sequentially at a wavelength of 450 nm, and calculated the sample concentration based on the standard curve and OD value. […]
(§2) Dosing volume: 10 mL/kg • 1. […] Histochemical test: After the behavioral test, the cerebrospinal fluid from each animal (N=10) was collected, centrifuged to collect the supernatant, and stored at −80° C. for Elisa test (IL-6, IL-1β, TNF-α), then the animals in each group (N=5) were randomly selected to take the modeling side of the striatum for the detection of neurotransmitters, and the rest of them (N=5) were subjected to cardiac perfusion, which was performed by the process of perfusion, fixation, sedimentation and slicing for immunofluorescence staining and photographed, and the number or area of signals were counted by ImageJ software. • 4. […]

IL-6 = test: Elisa test of cerebrospinal fluid, IL-6; details: rat cerebrospinal fluid; BTUDC-H 1000 mg/kg p.o. Qd 21 days; Mean ± SEM, n=10; Model 159.058 ± 6.349; p<0.05 vs Model
From the text: as §1, §2

COc1ccc2cc3[n+](cc2c1OC)CCc1cc2c(cc1-3)OCO2.C[C@H](CCC(=O)NCCS(=O)(=O)[O-])[C@H]1CC[C@H]2[C@@H]3[C@@H](O)C[C@@H]4C[C@H](O)CC[C@]4(C)[C@H]3CC[C@]12C [BTUDC, Berberine tauroursodeoxycholate]
Grip Strength Test Peak grip strength(gf) ([1]; 500 mg/kg QD p.o. 21 days, Model 535.521 ± 15.5632, P < 0.001 vs Model): 757.479 ± 7.5044 gf | Peak Grip Strength ([1]; BTUDC-H 1000 mg/kg p.o. Qd 21 days): 767.101 ± 6.668 | Peak Grip Strength ([1]; BTUDC-L 100 mg/kg p.o. Qd 21 days): 711.616 ± 7.934 | Peak Grip Strength ([1]; BTUDC-M 500 mg/kg p.o. Qd 21 days): 737.000 ± 8.222 | IL-1β Conc. (IL-1β): 37.251 ± 1.005 pg/mL | IL-6 Conc. (IL-6): 147.095 ± 1.871 pg/mL
